According to patent publication US6514761B1, “Methods of using BCL-2 for the therapeutic treatment and prevention of diseases” (The Burnham Institute, priority 1993, dated 2003):

B1: chicken Bcl-2: chicken Bcl-2 homolog expressed from cDNA in 32D-3 cells (protein, UniProt Q00709 1-233, looked up)
Apoptosis regulator Bcl-2: MAHPGRRGYDNREIVLKYIHYKLSQRGYDWAAGEDRPPVPPAPAPAAAPAAVAAAGASSHHRPEPPGSAAASEVPPAEGLRPAPPGVHLALRQAGDEFSRRYQRDFAQMSGQLHLTPFTAHGRFVAVVEELFRDGVNWGRIVAFFEFGGVMCVESVNREMSPLVDNIATWMTEYLNRHLHNWIQDNGGWDAFVELYGNSMRPLFDFSWISLKTILSLVLVGACITLGAYLGHK

Legend:
32D-3 cells [1] = assay: Survival of transfected 32D-3 cells cultured without growth factor; format: cell-based; details: 32D-3 cells expressing the protein, growth factor deprivation
Text: FIGS. 5A and 5B. Homologs of Bcl-2 prolong survival of 32D-3 cells grown in the absence of Il-3 for various times. Cell viability as determined by the trypan blue exclusion (mean +/− standard deviation of 3 determinations).
FIGS. 6A to 6C. Bcl-2 acts synergistically with Raf-1 to prolong cell survival under conditions of growth factor deprivation. Bcl-2 protein, alone (open circles); activated Raf-1 protein, alone (squares); Bcl-2+Raf-1 proteins (closed circles); no Bcl-2 or Raf-1 protein (triangles).
FIG. 7. A dominant-negative form of the Bcl-2 protein, Bcl-2β, accelerates cell death. Cell viability as determined by trypan blue exclusion. […]
32D-3 cells were stably transfected with expression plasmids containing either a hygromyin (HYG) or a G418 (NEO) antibiotic resistance gene and cDNA encoding either the human Bcl-2 protein, the chicken Bcl-2 protein or the BHRF-1 protein from Epstein Barr Virus (viral homolog of Bcl-2). […] Following transfection, cells were cultured without growth factor for various times and the number of viable cells was determined.
32D-3 cells were stably transfected with expression plasmids producing Bcl-2 protein, activated Raf-1 protein or both Bcl-2 and Raf-1, then cultured under conditions of growth factor deprivation that cause apoptosis. At various times after removing the growth factor from the medium, cells were collected and viability was determined. […]

[2] = tested on: in vitro self-assembled nuclei; assay: Cell-free apoptosis assay: nuclei assembled in Xenopus egg extracts with sperm chromatin; parameters: species or system Xenopus laevis
Procedure: A cell-free assay for assessing Bcl-2 function was developed to rapidly screen compounds for ability to inhibit or enhance Bcl-2 protein function. The assay utilizes in vitro self-assembled nuclei generated by mixing cell extracts derived from Xenopus laevis eggs with isolated sperm chromatin. The nuclei assemble normally but, after about 2 hours, begin to disintegrate. The nuclei appeared contracted and had the same appearance as isolated nuclei that had been treated briefly with an endonuclease. This phenomenon appears to represent apoptosis. Alternatively, isolated hepatocyte nuclei can be substituted for sperm chromatin and mixed with the egg extracts, resulting in the same phenomenon.
To test the effect of Bcl-2 protein on nuclei, lysates were prepared from Sf9 insect cells infected with recombinant baculoviruses encoding either Bcl-2 or an irrelevant protein such as β-galactosidase (β-gal) or the Lck kinase (see Reed et al., Anal. Biochem. 205:70-76 (1992). To confirm that Bcl-2 was expressed in the insect cell lysates, Sf9 insect cells were infected with recombinant Bcl-2 baculovirus or recombinant Lck baculovirus vectors. Infected cells were incubated for three days to allow expression of the gene products, then lysates were obtained and fractionated by SDS-PAGE electrophoresis. Following electrophoresis, proteins were transferred to membrane and probed with an antiserum raised against a synthetic peptide corresponding to part of the predicted amino acid sequence of human Bcl-2. […] Bcl-2 protein comprised about 5-10% of the total extracted protein.
Sf9 cell lysates were added at a 1:90 dilution into the Xenopus extracts or to a final protein concentration of 10 μg/ml (see Newmeyer and Wilson, Meth. Cell Biol. 36:607-634 (1991), which is incorporated herein by reference). […] After about another 40 min of incubation, the nuclei had disintegrated completely (FIG. 9B) and a generally dispersed filamentous background of Hoechst fluorescence remained along with many small spherical or irregularly shaped aggregates of chromatin (not shown). […]

PC12 cells = assay: Glutamate-induced death of PC12 cells (MTT dye reduction assay); format: cell-based, rat; details: PC12 cells infected with pZIP-BCL-2; 30 mM glutamate, 24 hours
Procedure: FIG. 4. Protection of PC12 cells from glutamate-induced death by Bcl-2. Cell viability as determined by MTT dye reduction assay (mean +/− standard deviation of 3 determinations).
The rat pheochromocytoma cell line, PC12, was stably infected with pZIP-BCL-2 or pZIP-NEO (see FIG. 1B), then treated with 30 mM glutamate for 24 hours. Following treatment, cell viability was assessed by MTT dye reduction assay as described in Tada et al., J. Immunol. Meth. 93:157-165 (1986).

AT-3 cells = assay: Sindbis virus-induced death of AT-3 prostate cancer cells (trypan blue exclusion); format: cell-based, rat; details: AT-3 cells infected with pZIP-BCL2, grown with Sindbis virus
Text: FIG. 3. Bcl-2 blocks prostate cancer cell line, AT-3, death induced by Sindbis virus infection. Cell viability as determine by trypan blue exclusion (mean +/− standard deviation of 3 determinations). pZIP-BCL2 or pZIP-NEO are described in FIG. 1B. AT-3-NEO control cells (circles); AT-3-BCL2 cells (squares). Virus infected cells (solid symbols); cells cultured in the absence of virus (open symbols).
A rat prostate cancer cell line, AT-3, was infected with pZIP-BCL2 or pZIP-NEO (see FIG. 1B), then grown in the presence or absence of Sindbis virus. At various times after the addition of Sindbis virus, cells were collected and cell viability was determine using trypan blue exclusion.

32D-3 cells [3] = assay: Viability of stably transfected 32D-3 cells in culture (trypan blue exclusion); format: cell-based; details: cells expressing the protein, followed over days in culture, versus Neo control
Text: FIG. 2A. Cell viability as determined by trypan blue exclusion (mean +/− standard deviation of 3 determinations). W.T., wild-type Bcl-2; P59S, mutant Bcl-2; Neo, control.
32D-3 cells were stably transfected with expression plasmids containing a G418 antibiotic resistance gene and either a wild-type or mutant human Bcl-2 DNA sequence. The mutant Bcl-2 sequence encodes a variant Bcl-2 protein having a serine substitution for a proline at amino acid position 59 (BCL2/P59S). This amino acid substitution results in a high level of constitutive expression of BCL2/P59S.
Following selection of the cells for G418 resistance, cells were plated and their viability was determined.

| Molecule | cell viability / survival without growth factor (32D-3 cells [1]) | intact, transport-competent nuclei ([2]; after 2 hours of incubation, Bcl-2-containing Sf9 lysate added to Xenopus extract) | nuclei remaining intact and transport-competent ([2]; after two hours and forty min incubation, Bcl-2-containing Sf9 lysate) | amount of fluorescent transport substrate imported by nuclei ([2]; in one hour, Bcl-2-containing lysate) | protection from glutamate-induced cell death (PC12 cells) | protection from Sindbis virus-induced cell death (AT-3 cells) | number of viable cells in culture (32D-3 cells [3]) |
| --- | --- | --- | --- | --- | --- | --- | --- |
| Bcl-2: about 26 kDa protein that promotes cell survival by blocking apoptosis; expressed by gene transfer or added as Sf9 lysate | modest effect | about 50% | 42% | no gross changes | protected the PC12 cells from glutamate-induced death | protected from Sindbis virus-induced death | did not decrease during the time examined |
| B1 | nearly as effective as the human Bcl-2 | – | – | – | – | – | – |
